According to patent US20220251124A1, “3,5-BIS(PHENYL)-1H-HETEROARYL DERIVATIVES AS MEDICAMENTS” (INSTITUTE OF BIOTECHNOLOGY CAS, V.V.I., priority 2019, published 2022):
Like-named read-outs stand apart in the source and are kept apart here.

Columns and labels:
Type in all cases: cell-based
UPF1H leukemia cell line = test: alamarBlue Cell Viability Reagent, 48 hrs
Experimental: (§1) Compound 1 and a comparative compound deferasirox (DFX) were tested in their efficacy to kill/suppress proliferation of several leukemia cells. Briefly, 10.000 cells per well were seeded in a 96-well plate on one day and the next day the tested compounds were added and incubated with the cells for 48 hrs. Cellular viability was determined as the ability to reduce the probe alamarBlue™ Cell Viability Reagent.

UPF9T leukemia cell line = test: alamarBlue Cell Viability Reagent, 48 hrs
Experimental: as §1

[1] = tested on: UPF16A leukemia cell line; test: alamarBlue Cell Viability Reagent, 48 hrs
Experimental: as §1

non malignant cells MRC5 = test: annexin V/PI staining, cell death induction, 48 hrs
Experimental: (§2) This effect seems to be based mainly on the cytostatic effect of compound 1. To define the ability to kill cells, cell death-inducing potency (cytotoxic efficacy) of DFX and compound 1 have been tested via annexin V/PI staining commonly used as a measure of apoptotic/necrotic cell death. Briefly, cells were seeded in 12-well plate at 100,000 per well, incubated with the selected compounds for 48 hours, then floating cells were spun, adherent cells trypsinized and spun as well followed by the staining with AnnexinV-FITC and PI probes. Cells were then washed with PBS and measured via Fluorescence Activated Sorter.

OVCAR = test: as above
Experimental: as §2

BxPC3 [2] = test: as above; conditions: 5 μM
Experimental: as §2

non-malignant HFP1 cells = test: as above; conditions: for dead cells (AnnexinV/PI): 48 hrs, HFP1
Experimental: as §2

[3] = tested on: tamoxifen resistant MCF7 (Tam5R); test: crystal violet assay, tamoxifen resistant cells; conditions: MCF7 Tam5R grown in the presence of 5 μM tamoxifen
Experimental: (§3) Compound 1 and a comparative compound deferasirox (DFX) were tested in their efficacy to kill/suppress proliferation of malignant breast cancer MCF7 cells representing estrogen-dependent type of breast cancer. Briefly, 10.000 cells per well were seeded in a 96-well plate on one day and the next day the tested compounds were added and incubated with the cells for 48 hrs. The cells were then fixed with 4% paraformaldehyde, stained with 0.05% crystal violet, washed with PBS, and solubilized in 1% SDS. The absorbance of the plate at 595 nm was then measured, quantifying the number of viable cells.
(§4) To test whether compound 1 is active against resistant cancer cells, we used tamoxifen-resistant MCF7, T47D. The IC50 values were again measured with the crystal violet assay performed as in example 12. We have documented that there is a significant difference in the ability of compound 1 to induce cytostatic and cytotoxic effects between the parental cells sensitive to tamoxifen and the resistant ones that grow even in the presence of tamoxifen (Table 11), yet the IC50 values are still in the nM range, making this compound very efficient.

[4] = tested on: tamoxifen resistant T47D (Tam5R); test: crystal violet assay, tamoxifen resistant cells; conditions: Homo sapiens, T47D Tam5R grown in the presence of 5 μM tamoxifen
Experimental: as §3, §4

OVCAR3 = test: crystal violet assay, cellular viability, 48 hrs; conditions: Homo sapiens, OVCAR-3
Experimental: as §3
(§5) Compounds 1, 2 and the comparative compound deferasirox were tested in their efficacy to suppress proliferation/kill several malignant cell lines of breast, pancreatic and ovarian origin (MCF7, MDA-MB-231, BxPC3 and OVCAR3). The procedure is identical to that in example 12.

T47D = test: crystal violet assay, cellular viability, 48 hrs; conditions: Homo sapiens, T47D (parental/control)
Experimental: [The source words this procedure for another cell line and reports this cell line under the same test.] as §3, §5

BxPC3 [5] = test: crystal violet assay, cellular viability, 48 hrs; conditions: Homo sapiens, BXPC-3
Experimental: as §3, §5

[6] = tested on: non-malignant fibroblasts (HFP1); test: crystal violet assay, cellular viability, 48 hrs; conditions: Fibroblast
Experimental: [The source words this procedure for another cell line and reports this cell line under the same test.] as §3, §5

MDA-MB-231 cells = test: crystal violet assay, cellular viability, 48 hrs; conditions: for IC50: MDA-MB-231, crystal violet
Experimental: as §3
Compound 1 and the comparative compound deferasirox were tested in their efficacy to kill/suppress proliferation of malignant MDA-MB-231 cancer cells representing hard to treat triple negative breast cancer. The procedure is identical to that in example 12.

MCF7 = test: annexin V/PI staining, cell death induction, 48 hrs
Experimental: as §2
Since compound 1 is an iron chelator, we have evaluated the effect of pre-loading compound 1 with iron at a 2:1 ratio and then applying it to the cells, followed by measurement of cell death using the Annexin V/PI staining as in example 4.

MCF7 cells = test: crystal violet assay, cellular viability (cytostatic and cytotoxic effect), 48 hrs; conditions: Homo sapiens
Experimental: as §3

leukemia cells = test: alamarBlue viability, leukemia cells overall
Experimental: as §1

Structure (SMILES): O=C(NCCCCCCCCCC[P+](c1ccccc1)(c1ccccc1)c1ccccc1)c1ccc(-n2nc(-c3ccccc3O)nc2-c2ccccc2O)cc1 [Compound 1, (10-(4-(3,5-bis(2-hydroxyphenyl)-1H-1,2,4-triazol-1-yl)benzamido)decyl) triphenylphosphonium Chloride]
- viability at 0.03 µM (UPF1H leukemia cell line; 0.030 μM, 48 hrs, read-out: viable cells compared to non-treated controls): 94.1%
- viability at 0.1 µM (UPF1H leukemia cell line; 0.100 μM, 48 hrs, read-out: viable cells compared to non-treated controls): 81.9%
- viability at 0.3 µM (UPF1H leukemia cell line; 0.300 μM, 48 hrs, read-out: viable cells compared to non-treated controls): 31.1%
- viability at 3 µM (UPF1H leukemia cell line; 3 μM, 48 hrs, read-out: viable cells compared to non-treated controls): 5.8%
- viability at 10 µM (UPF1H leukemia cell line; 10 μM, 48 hrs, read-out: viable cells compared to non-treated controls): 0.04%
- IC50 (UPF1H leukemia cell line; 48 h): 230 nM
- viability at 0.03 µM (UPF9T leukemia cell line; 0.030 μM, 48 hrs, UPF9T, read-out: viable cells compared to non-treated controls): 44.8%
- viability at 0.1 µM (UPF9T leukemia cell line; 0.100 μM, 48 hrs, UPF9T, read-out: viable cells compared to non-treated controls): 10.5%
- viability at 0.3 µM (UPF9T leukemia cell line; 0.300 μM, 48 hrs, UPF9T, read-out: viable cells compared to non-treated controls): 2%
- viability at 3 µM (UPF9T leukemia cell line; 3 μM, 48 hrs, UPF9T, read-out: viable cells compared to non-treated controls): 6.7%
- viability at 10 µM (UPF9T leukemia cell line; 10 μM, 48 hrs, UPF9T, read-out: viable cells compared to non-treated controls): 6.9%
- IC50 (UPF9T leukemia cell line; 48 h): 20 nM
- viability at 0.03 µM ([1]; 0.030 μM, 48 hrs, UPF16A, read-out: viable cells compared to non-treated controls): 75.7%
- viability at 0.1 µM ([1]; 0.100 μM, 48 hrs, UPF16A, read-out: viable cells compared to non-treated controls): 50.2%
- viability at 0.3 µM ([1]; 0.300 μM, 48 hrs, UPF16A, read-out: viable cells compared to non-treated controls): 30.8%
- viability at 3 µM ([1]; 3 μM, 48 hrs, UPF16A, read-out: viable cells compared to non-treated controls): 4%
- viability at 10 µM ([1]; 10 μM, 48 hrs, UPF16A, read-out: viable cells compared to non-treated controls): 0.31%
- IC50 ([1]; 48 h): 110 nM
- dead cells (AnnexinV/PI) (non malignant cells MRC5; 1 μM): 14.5 (1.7) %
- dead cells (AnnexinV/PI) (non malignant cells MRC5; 2 μM): 19.6 (1.9) %
- dead cells (AnnexinV/PI) (non malignant cells MRC5; 5 μM): 15.0 (2.0) %
- dead cells (AnnexinV/PI) (OVCAR; 1 μM): 31.6 (10.3) %
- dead cells (AnnexinV/PI) (OVCAR; 2 μM): 39.7 (9.8) %
- dead cells (AnnexinV/PI) (OVCAR; 5 μM): 52.2 (17.5) %
- dead cells (AnnexinV/PI) (BxPC3 [2]): 37.8 (16.1) %
- dead cells (AnnexinV/PI) (non-malignant HFP1 cells; 1 μM): 12.3 (0.9) %
- dead cells (AnnexinV/PI) (non-malignant HFP1 cells; 2 μM): 13.6 (1.4) %
- dead cells (AnnexinV/PI) (non-malignant HFP1 cells; 5 μM): 23.3 (1.1) %
- concentrations at which toxic effect could be detected (non-malignant HFP1 cells; non-malignant HFP1 cells): higher than 5 μM
- IC50 [3]: 38 nM
- IC50 [4]: 112 nM
- IC50 (OVCAR3): 154 nM
- IC50 (T47D): 31 nM
- IC50 (BxPC3 [5]): 150 nM
- IC50 [6]: 532 nM
- viability at 0.03 µM (MDA-MB-231 cells; Homo sapiens, 0.030 μM, MDA-MB-231, read-out: viable cells compared to non-treated controls): 71.1%
- viability at 0.1 µM (MDA-MB-231 cells; Homo sapiens, 0.100 μM, MDA-MB-231, read-out: viable cells compared to non-treated controls): 52.5%
- viability at 0.3 µM (MDA-MB-231 cells; Homo sapiens, 0.300 μM, MDA-MB-231, read-out: viable cells compared to non-treated controls): 37.4%
- viability at 1 µM (MDA-MB-231 cells; Homo sapiens, 1 μM, MDA-MB-231, read-out: viable cells compared to non-treated controls): 27.8%
- viability at 3 µM (MDA-MB-231 cells; Homo sapiens, 3 μM, MDA-MB-231, read-out: viable cells compared to non-treated controls): 18.2%
- viability at 10 µM (MDA-MB-231 cells; Homo sapiens, 10 μM, MDA-MB-231, read-out: viable cells compared to non-treated controls): 0.29%
- viability at 30 µM (MDA-MB-231 cells; Homo sapiens, 30 μM, MDA-MB-231, read-out: viable cells compared to non-treated controls): 0.51%
- IC50 (MDA-MB-231 cells; Homo sapiens, MDA-MB-231, 48 h): 131 nM
- IC50 (MDA-MB-231 cells; Homo sapiens, MDA-MB-231, 48 h, text): 131 nM
- IC50 (MDA-MB-231 cells): 130 nM
- dead cells (AnnexinV/PI) (MCF7; 5 μM, +Fe^+3 (pre-loaded with iron at a 2:1 ratio)): 24.3 (1.1) %
- dead cells (AnnexinV/PI) (MCF7; 5 μM, alone): 38.5 (8.8) %
- dead cells (AnnexinV/PI) (MCF7; 10 μM, +Fe^+3 (pre-loaded with iron at a 2:1 ratio)): 25.7 (2.5) %
- dead cells (AnnexinV/PI) (MCF7; 10 μM, alone): 46.6 (7.8) %
- viability at 0.03 µM (MCF7 cells; 0.030 μM, MCF7, read-out: viable cells compared to non-treated controls): 33.7%
- viability at 0.1 µM (MCF7 cells; 0.100 μM, MCF7, read-out: viable cells compared to non-treated controls): 23.6%
- viability at 0.3 µM (MCF7 cells; 0.300 μM, MCF7, read-out: viable cells compared to non-treated controls): 14.8%
- viability at 1 µM (MCF7 cells; 1 μM, MCF7, read-out: viable cells compared to non-treated controls): 7.28%
- viability at 3 µM (MCF7 cells; 3 μM, MCF7, read-out: viable cells compared to non-treated controls): 5.2%
- viability at 10 µM (MCF7 cells; 10 μM, MCF7, read-out: viable cells compared to non-treated controls): 2.31%
- viability at 30 µM (MCF7 cells; 30 μM, MCF7, read-out: viable cells compared to non-treated controls): 0.69%
- IC50 (MCF7 cells; MCF7 (parental/control), crystal violet, read-out: IC50): 8 nM
- IC50 (MCF7 cells; MCF7, crystal violet, read-out: IC50 (suppression of proliferation to 50%)): 8 nM
- IC50 (leukemia cells; 48 h, read-out: IC50 (suppression of proliferation to 50%)): 20 to 200 nM
- same effect at a concentration lower than deferasirox (leukemia cells; IC50 versus deferasirox, leukemia cells): 40-4000 fold
- efficacy against leukemia cell lines (leukemia cells; as seen in previous tables): 20 to 200 nM
